Measured values reported in ChEMBL document CHEMBL1150021, “Alkyl ether analogs of the FK-506 related, immunosuppressive macrolide L-683,590 (ascomycin)” (Bioorg Med Chem Lett, 1994).

Each compound was assayed against Peptidyl-prolyl cis-trans isomerase FKBP1A (Homo sapiens, UniProt P62942) (assay: Ability to bind the major cystolic receptor FK506 binding protein 12 by using competitive binding assay). Conditions: not given.
Sequence of Peptidyl-prolyl cis-trans isomerase FKBP1A (P62942 whole entry): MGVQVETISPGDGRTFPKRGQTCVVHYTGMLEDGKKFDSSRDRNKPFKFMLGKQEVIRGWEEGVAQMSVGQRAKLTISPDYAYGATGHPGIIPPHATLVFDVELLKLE
`CC[C@@H]1/C=C(\C)C[C@H](C)C[C@H](OC)[C@H]2O[C@@](O)(C(=O)C(=O)N3CCCC[C@H]3C(=O)O[C@H](/C(C)=C/[C@@H]3CC[C@@H](OC/C=C/c4cccc([N+](=O)[O-])c4)[C@H](OC)C3)[C@H](C)[C@@H](O)CC1=O)[C@H](C)C[C@@H]2OC` gave an EC50 of 34.3 nM. For `CC[C@@H]1/C=C(\C)C[C@H](C)C[C@H](OC)[C@H]2O[C@@](O)(C(=O)C(=O)N3CCCC[C@H]3C(=O)O[C@H](/C(C)=C/[C@@H]3CC[C@@H](OC/C=C/c4ccc(O)cc4)[C@H](OC)C3)[C@H](C)[C@@H](O)CC1=O)[C@H](C)C[C@@H]2OC`, the EC50 was 20.5 nM. Compound `CC[C@@H]1/C=C(\C)C[C@H](C)C[C@H](OC)[C@H]2O[C@@](O)(C(=O)C(=O)N3CCCC[C@H]3C(=O)O[C@H](/C(C)=C/[C@@H]3CC[C@@H](OC/C=C/c4ccc(Br)cc4)[C@H](OC)C3)[C@H](C)[C@@H](O)CC1=O)[C@H](C)C[C@@H]2OC` has an EC50 of 23 nM. In the case of `CC[C@@H]1/C=C(\C)C[C@H](C)C[C@H](OC)[C@H]2O[C@@](O)(C(=O)C(=O)N3CCCC[C@H]3C(=O)O[C@H](/C(C)=C/[C@@H]3CC[C@@H](O)[C@H](OC)C3)[C@H](C)[C@@H](O)CC1=O)[C@H](C)C[C@@H]2OC` [ASCOMYCIN], the EC50 is reported as 1.6 nM.

The compounds below were run on T-cell (assay: In vitro evaluation for immunosuppressive activity against proliferation of antigen stimulated murine splenic T cells). Conditions: Mus musculus.
Format: functional, cell-based
`C=CC[C@@H]1/C=C(\C)C[C@H](C)C[C@H](OC)[C@H]2O[C@@](O)(C(=O)C(=O)N3CCCC[C@H]3C(=O)O[C@H](/C(C)=C/[C@@H]3CC[C@@H](O)[C@H](OC)C3)[C@H](C)[C@@H](O)CC1=O)[C@H](C)C[C@@H]2OC` [TACROLIMUS ANHYDROUS] gave an IC50 of 0.29 nM. With `CC[C@@H]1/C=C(\C)C[C@H](C)C[C@H](OC)[C@H]2O[C@@](O)(C(=O)C(=O)N3CCCC[C@H]3C(=O)O[C@H](/C(C)=C/[C@@H]3CC[C@@H](OC/C(C)=C/c4ccccc4)[C@H](OC)C3)[C@H](C)[C@@H](O)CC1=O)[C@H](C)C[C@@H]2OC` the IC50 was 5.5 nM. In the case of `CC[C@@H]1/C=C(\C)C[C@H](C)C[C@H](OC)[C@H]2O[C@@](O)(C(=O)C(=O)N3CCCC[C@H]3C(=O)O[C@H](/C(C)=C/[C@@H]3CC[C@@H](OC/C=C/c4cc(F)cc(F)c4)[C@H](OC)C3)[C@H](C)[C@@H](O)CC1=O)[C@H](C)C[C@@H]2OC`, the IC50 is reported as 3.9 nM. `CC[C@@H]1/C=C(\C)C[C@H](C)C[C@H](OC)[C@H]2O[C@@](O)(C(=O)C(=O)N3CCCC[C@H]3C(=O)O[C@H](/C(C)=C/[C@@H]3CC[C@@H](OC/C=C/c4cccc(F)c4)[C@H](OC)C3)[C@H](C)[C@@H](O)CC1=O)[C@H](C)C[C@@H]2OC` was tested, and the IC50 was 2.5 nM. `CC[C@@H]1/C=C(\C)C[C@H](C)C[C@H](OC)[C@H]2O[C@@](O)(C(=O)C(=O)N3CCCC[C@H]3C(=O)O[C@H](/C(C)=C/[C@@H]3CC[C@@H](OC/C=C/C4CCCCC4)[C@H](OC)C3)[C@H](C)[C@@H](O)CC1=O)[C@H](C)C[C@@H]2OC` gave an IC50 of 5.5 nM. With `CC[C@@H]1/C=C(\C)C[C@H](C)C[C@H](OC)[C@H]2O[C@@](O)(C(=O)C(=O)N3CCCC[C@H]3C(=O)O[C@H](/C(C)=C/[C@@H]3CC[C@@H](OC/C=C/c4cccc([N+](=O)[O-])c4)[C@H](OC)C3)[C@H](C)[C@@H](O)CC1=O)[C@H](C)C[C@@H]2OC` the IC50 was 1.9 nM. In the case of `C/C=C(C)/C=C/CO[C@@H]1CC[C@@H](/C=C(\C)[C@H]2OC(=O)[C@@H]3CCCCN3C(=O)C(=O)[C@]3(O)O[C@H]([C@@H](OC)C[C@@H](C)C/C(C)=C/[C@@H](CC)C(=O)C[C@H](O)[C@H]2C)[C@@H](OC)C[C@H]3C)C[C@H]1OC`, the IC50 is reported as 6.9 nM. `CC[C@@H]1/C=C(\C)C[C@H](C)C[C@H](OC)[C@H]2O[C@@](O)(C(=O)C(=O)N3CCCC[C@H]3C(=O)O[C@H](/C(C)=C/[C@@H]3CC[C@@H](OCc4ccco4)[C@H](OC)C3)[C@H](C)[C@@H](O)CC1=O)[C@H](C)C[C@@H]2OC` gave an IC50 of 13.9 nM. `CC[C@@H]1/C=C(\C)C[C@H](C)C[C@H](OC)[C@H]2O[C@@](O)(C(=O)C(=O)N3CCCC[C@H]3C(=O)O[C@H](/C(C)=C/[C@@H]3CC[C@@H](OC/C=C/c4cccc(O)c4)[C@H](OC)C3)[C@H](C)[C@@H](O)CC1=O)[C@H](C)C[C@@H]2OC` showed an IC50 of 0.8 nM. For `CC[C@@H]1/C=C(\C)C[C@H](C)C[C@H](OC)[C@H]2O[C@@](O)(C(=O)C(=O)N3CCCC[C@H]3C(=O)O[C@H](/C(C)=C/[C@@H]3CC[C@@H](OC/C=C/c4ccc(OC)cc4)[C@H](OC)C3)[C@H](C)[C@@H](O)CC1=O)[C@H](C)C[C@@H]2OC`, the IC50 was 3.8 nM. For `CC[C@@H]1/C=C(\C)C[C@H](C)C[C@H](OC)[C@H]2O[C@@](O)(C(=O)C(=O)N3CCCC[C@H]3C(=O)O[C@H](/C(C)=C/[C@@H]3CC[C@@H](OC/C=C/C(C)(C)C)[C@H](OC)C3)[C@H](C)[C@@H](O)CC1=O)[C@H](C)C[C@@H]2OC`, the IC50 was 14.2 nM. With `CC[C@@H]1/C=C(\C)C[C@H](C)C[C@H](OC)[C@H]2O[C@@](O)(C(=O)C(=O)N3CCCC[C@H]3C(=O)O[C@H](/C(C)=C/[C@@H]3CC[C@@H](OC(C)C)[C@H](OC)C3)[C@H](C)[C@@H](O)CC1=O)[C@H](C)C[C@@H]2OC` the IC50 was 12.5 nM. Compound `CC[C@@H]1/C=C(\C)C[C@H](C)C[C@H](OC)[C@H]2O[C@@](O)(C(=O)C(=O)N3CCCC[C@H]3C(=O)O[C@H](/C(C)=C/[C@@H]3CC[C@@H](OC/C=C/c4ccc(Br)cc4)[C@H](OC)C3)[C@H](C)[C@@H](O)CC1=O)[C@H](C)C[C@@H]2OC` has an IC50 of 14.5 nM. `CC#CCO[C@@H]1CC[C@@H](/C=C(\C)[C@H]2OC(=O)[C@@H]3CCCCN3C(=O)C(=O)[C@]3(O)O[C@H]([C@@H](OC)C[C@@H](C)C/C(C)=C/[C@@H](CC)C(=O)C[C@H](O)[C@H]2C)[C@@H](OC)C[C@H]3C)C[C@H]1OC` showed an IC50 of 6.1 nM. `CC[C@@H]1/C=C(\C)C[C@H](C)C[C@H](OC)[C@H]2O[C@@](O)(C(=O)C(=O)N3CCCC[C@H]3C(=O)O[C@H](/C(C)=C/[C@@H]3CC[C@@H](OCCCc4ccccc4)[C@H](OC)C3)[C@H](C)[C@@H](O)CC1=O)[C@H](C)C[C@@H]2OC` gave an IC50 of 3.5 nM. In the case of `CC[C@@H]1/C=C(\C)C[C@H](C)C[C@H](OC)[C@H]2O[C@@](O)(C(=O)C(=O)N3CCCC[C@H]3C(=O)O[C@H](/C(C)=C/[C@@H]3CC[C@@H](OC/C=C/c4ccc(Cl)cc4)[C@H](OC)C3)[C@H](C)[C@@H](O)CC1=O)[C@H](C)C[C@@H]2OC`, the IC50 is reported as 15.8 nM. `CC[C@@H]1/C=C(\C)C[C@H](C)C[C@H](OC)[C@H]2O[C@@](O)(C(=O)C(=O)N3CCCC[C@H]3C(=O)O[C@H](/C(C)=C/[C@@H]3CC[C@@H](OC(C)c4ccccc4)[C@H](OC)C3)[C@H](C)[C@@H](O)CC1=O)[C@H](C)C[C@@H]2OC` (stereo not given in full) showed an IC50 of 11.3 nM. In the case of `CC[C@@H]1/C=C(\C)C[C@H](C)C[C@H](OC)[C@H]2O[C@@](O)(C(=O)C(=O)N3CCCC[C@H]3C(=O)O[C@H](/C(C)=C/[C@@H]3CC[C@@H](OCc4ccccc4)[C@H](OC)C3)[C@H](C)[C@@H](O)CC1=O)[C@H](C)C[C@@H]2OC`, the IC50 is reported as 3 nM. `CC[C@@H]1/C=C(\C)C[C@H](C)C[C@H](OC)[C@H]2O[C@@](O)(C(=O)C(=O)N3CCCC[C@H]3C(=O)O[C@H](/C(C)=C/[C@@H]3CC[C@@H](OCc4cccs4)[C@H](OC)C3)[C@H](C)[C@@H](O)CC1=O)[C@H](C)C[C@@H]2OC` showed an IC50 of 7.1 nM. `CC[C@@H]1/C=C(\C)C[C@H](C)C[C@H](OC)[C@H]2O[C@@](O)(C(=O)C(=O)N3CCCC[C@H]3C(=O)O[C@H](/C(C)=C/[C@@H]3CC[C@@H](OC/C=C/c4ccc(F)cc4)[C@H](OC)C3)[C@H](C)[C@@H](O)CC1=O)[C@H](C)C[C@@H]2OC` was tested, and the IC50 was 5.5 nM. `CC[C@@H]1/C=C(\C)C[C@H](C)C[C@H](OC)[C@H]2O[C@@](O)(C(=O)C(=O)N3CCCC[C@H]3C(=O)O[C@H](/C(C)=C/[C@@H]3CC[C@@H](OCC#Cc4ccccc4)[C@H](OC)C3)[C@H](C)[C@@H](O)CC1=O)[C@H](C)C[C@@H]2OC` was tested, and the IC50 was 2.7 nM.
